Measurements from patent publication US6743425B2, “Therapeutic agents for achondroplasia” (priority 2001, dated 2004).

Legend:
[1] = test system: tibiae from the fetus of CNP-transgenic mice or their nontransgenic littermates; experiment: organ culture of embryonic tibiae (4-d culture; longitudinal length and histology); assay type: cell-based, mouse; conditions: cultured tibiae from nontransgenic littermates in the presence of 10^-7 M CNP
Method: Tibiae from the fetus of CNP-transgenic mice or their nontransgenic littermates were dissected out on 16.5-d post coitus and cultured for 4 days in suspension in an artificial medium. To inhibit the effect of the endogenous CNP, the tibial culture was performed with a non-peptide NP receptor antagonist, HS-142-1 (Komatsu et al., Circ Res. 78:606-614, 1996) at a concentration of 50 mg/L in the medium. At the end of the culture period, the cultured tibiae were measured for their longitudinal length, and fixed and embedded for histological analysis. Sections of 5 μm in thickness were cut from the embedded specimen and stained with Alcian blue (pH 2.5) and counterstained with hematoxylin/eosin. The cGMP contents of the cultured tibiae were measured by RIA at the end of the 4-d culture period. Glycosaminoglycan synthesis of the cultured tibiae was assessed by measuring ^35SO4 incorporation (Mericq et al., Pediatr Res 47: 189-193, 2000). Namely, cultured tibiae of the CNP-transgenic mice and their nontransgenic littermates were labeled with 5 μCi/ml Na2^35SO4 (Amersham, specific activity 100 mCi/mmol) for 1 h. […] The precipitate was washed three times with 1 ml of 0.1% cetylpyridinium chloride (Sigma Chemical Co.)—0.2 M NaCl and then dissolved in 1 ml of 23 N formic acid, after which the ^35SO4 content was determined by a liquid scintillation counter.

[2] = test system: p44 and p42 MAP kinases (ERK1/2); experiment: phosphorylation of ERK1/2 after basic FGF stimulation, Western blotting in ATDC cells; assay type: cell-based, mouse; conditions: pretreatment for 1 h, 10^-7 CNP
Method: (§1) Cells of the mouse chondrocyte strain ATDC (J. Bone. Miner. Res., 12, 1174-1188, 1997; supplied from Assistant Professor Shukunami and Professor […] of the Institute for Frontier Medical Sciences, Kyoto University) were pretreated with 1-10 ng/ml basic FGF (SIGMA), a ligand for FGFR3. Then, these cells were stimulated with 10^-9-10^-7 M CNP and assayed for intracellular cGMP production by the RIA method (cyclic GMP Assay Kit available from YAMASA CORPORATION). Phosphorylation of p44 and p42 MAP kinases (ERK1/2) and expression of […] and p44 MAP kinase (ERK1) after basic FGF stimulation were also assayed by Western blotting using phosphorylated MAP-K antibodies and MAP-K antibodies (both available from Cell Signaling Technology; MAP: mitogen-activated protein).

[3] = test system: tibiae from fetal mice; conditions: organ cultures of tibiae from fetal mice; J. Biol. Chem. 273: 11695-11700, 1998; cited from earlier work
[4] = test system: organ cultures of tibiae from fetal mice, cultured chondrocytes and cultured osteoblasts; conditions: cited from earlier work
[5] = test system: mouse chondrocyte strain ATDC; experiment: intracellular cGMP production by RIA in ATDC cells after basic FGF pretreatment and CNP stimulation; assay type: cell-based; conditions: pretreatment with 1 ng/ml basic FGF for 1 h
Method: as §1

Row | Substance | elongation of the cartilagenous primordia with enlarged extracellular matrix and increased size of hypertrophic chondrocytes [1] | phosphorylation of ERK1/2 with basic FGF [2] | longitudinal bone growth [3] | potency in the production of cGMP compared with ANP and BNP [4] | intracellular cGMP production after CNP stimulation [5]
1 | C-type natriuretic peptide [CNP] | potent | significantly inhibited | significantly promotes | more potent than ANP and BNP | –
2 | basic FGF: a ligand for FGFR3 (SIGMA) | – | – | – | – | 70 % of control
